# pIC50: −log10 of the molar value.
# Target: T1, human URAT1 (Homo sapiens, UniProt Q96S37)
# T1 construct: Human URAT1 full length cDNA was subcloned to expression vector pcDNA3.1; expressed in transfected cells; host or cells: HEK293 cells (pcDNA3.1, geneticin-selected)
# T1 sequence (Q96S37 1-553): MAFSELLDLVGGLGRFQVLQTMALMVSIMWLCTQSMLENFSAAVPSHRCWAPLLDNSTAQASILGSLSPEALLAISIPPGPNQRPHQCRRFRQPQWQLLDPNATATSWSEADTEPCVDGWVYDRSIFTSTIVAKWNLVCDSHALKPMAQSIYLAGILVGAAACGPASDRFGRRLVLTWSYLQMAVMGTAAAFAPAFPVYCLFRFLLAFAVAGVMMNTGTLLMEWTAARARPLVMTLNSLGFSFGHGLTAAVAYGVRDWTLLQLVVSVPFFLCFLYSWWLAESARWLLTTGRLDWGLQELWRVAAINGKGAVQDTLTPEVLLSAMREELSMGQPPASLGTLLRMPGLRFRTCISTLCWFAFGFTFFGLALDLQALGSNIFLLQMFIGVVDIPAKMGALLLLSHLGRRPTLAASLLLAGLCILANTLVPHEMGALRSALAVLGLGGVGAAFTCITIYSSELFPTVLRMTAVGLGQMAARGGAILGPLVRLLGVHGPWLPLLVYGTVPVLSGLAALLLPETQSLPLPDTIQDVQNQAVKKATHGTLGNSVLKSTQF
# Test: Uric acid transport inhibitory test using human URAT1-expressing cells
# Assay type: cell-based
# Conditions: human URAT1 expressing HEK293 cells, uptake of 14C-labeled uric acid for 5 min, room temperature; read-out: hURAT1 (IC50, concentration necessary for inhibiting the uric acid transport rate by 50%)
# Source text: Reference Experimental Example 1 Uric Acid Transport Inhibitory Test Using Human Urat1-Expressing Cells
# Human URAT1 full length cDNA was subcloned to expression vector pcDNA3.1 and human URAT1 gene was transfected into human embryonic kidney derived cell line (HEK293 cells) by liposome method using Lipofectamine2000. Simultaneously, HEK293 cells transfected with expression vector pcDNA3.1 alone (hereinafter mock cells) were also produced. HEK293 cells expressing human URAT1 gene or mock cells were selected with geneticin resistance as an index. The functional expression of human URAT1 gene was confirmed by a method similar to the following method, using transport of uric acid labeled with ^14C into the cells as an index.
# Human URAT1 expressing HEK293 cells or mock cells were cultured in Dulbecco's modified Eagle's MEM medium (high glucose) containing 10% fetal bovine serum, 0.5 mg/mL geneticin sulfate, 100 units/mL penicillin and 100 μg/mL streptomycin under the conditions of 37° C. and 5% CO2 in an incubator. The cells were plated in a 96 well plate (poly-D-Lysine coated) at 1×10^5 cells/well and the following uric acid transport inhibitory test was performed 24 hr later. This test was performed at room temperature.
# After the medium was removed by aspiration from each well, the cells were washed once with Hank's Balanced Salt Solution (HBSS) and preincubated with HBSS ([…]) for 5 min. HBSS was aspirated and an assay buffer (wherein NaCl in the above-mentioned HBSS had been substituted with Na-gluconate) containing various concentrations of the Example compound and a radioactive ligand (uric acid labeled with 14C; final concentration […]) was added to each well at […] and an uptake reaction was carried out for 5 min. After the reaction, the cells were washed twice with ice-cold HBSS ([…]), and Microscin ti TM 20 (PerkinElmer) was added at […]. The cells were lysed by stirring and the radioactivity of each well was measured in a liquid scintillation counter (TOP COUNT, Packard).
# The uric acid transport rate (%) of the Example compound at each concentration was calculated relative to the radioactivity (difference in radioactivity between human URAT1 expressing HEK293 cells and mock cells without addition of Example compound (DMSO addition)) showing URAT1 specific uric acid transport as 100%, and the concentration (IC50) of the Example compound necessary for inhibiting the uric acid transport rate by 50% was determined. In Table-Table, “+++” means IC50 value of less than 100 nM, “++” means IC50 value of 100 nM to less than 1000 nM, and “+” means IC50 value of 1000 nM to less than 3000 nM.
row,pIC50,SMILES
1,6.00 to 7.00,"O=C(c1cc(Cl)c(O)c(Cl)c1)N1CCCOc2ccccc21 [Example 95, (3,5-dichloro-4-hydroxyphenyl)-(7,8-dihydro-6H-5-oxa-9-azabenzocyclohepten-9-yl)-methanone]"
2,> 7.00,"O=C(c1cc(Br)c(O)c(Br)c1)N1CCOc2ccc([N+](=O)[O-])cc21 [Example 69, (3,5-dibromo-4-hydroxyphenyl)-(6-nitro-2,3-dihydrobenzo[1,4]oxazin-4-yl)-methanone]"
3,5.52 to 6.00,"CCS(=O)(=O)c1ccc2c(c1)N(C(=O)c1cc(Cl)c(O)c(Cl)c1)CCO2 [Example 84, (3,5-dichloro-4-hydroxyphenyl)-(6-ethanesulfonyl-2,3-dihydrobenzo[1,4]oxazin-4-yl)-methanone]"
4,> 7.00,"O=C(c1cc(Cl)c(O)c(Cl)c1)N1CCOc2ccc(F)cc21 [Example 44, (3,5-dichloro-4-hydroxyphenyl)-(6-fluoro-2,3-dihydrobenzo[1,4]oxazin-4-yl)-methanone]"
5,> 7.00,"O=C(c1cc(Cl)c(O)c(Cl)c1)N1CCOc2cccc(O)c21 [Example 89, (3,5-dichloro-4-hydroxyphenyl)-(5-hydroxy-2,3-dihydrobenzo[1,4]oxazin-4-yl)-methanone]"
6,5.52 to 6.00,"CCOC(=O)COc1c(Cl)cc(C(=O)N2CCOc3ccccc32)cc1Cl [Example 91, ethyl [2,6-dichloro-4-(2,3-dihydrobenzo[1,4]oxazine-4-carbonyl)phenoxy]acetate]"
7,> 7.00,"Cc1ccc2c(c1)N(C(=O)c1cc(Br)c(O)c(Br)c1)CCO2 [Example 81, (3,5-dibromo-4-hydroxyphenyl)-(6-methyl-2,3-dihydrobenzo[1,4]oxazin-4-yl)-methanone]"
8,6.00 to 7.00,"COc1cc(C(=O)N2CCOc3ccccc32)cc(Cl)c1O [Example 40, (3-chloro-4-hydroxy-5-methoxyphenyl)-(2,3-dihydrobenzo[1,4]oxazin-4-yl)-methanone]"
9,> 7.00,"O=C(c1ccc(O)c(C(F)(F)F)c1)N1CCOc2ccccc21 [Example 39, (2,3-dihydrobenzo[1,4]oxazin-4-yl)-(4-hydroxy-3-trifluoromethylphenyl)-methanone]"
10,6.00 to 7.00,"O=C(c1cc(Cl)c(O)c(Cl)c1)N1CCOc2cc(Cl)ccc21 [Example 52, (7-chloro-2,3-dihydrobenzo[1,4]oxazin-4-yl)-(3,5-dichloro-4-hydroxyphenyl)-methanone]"
11,> 7.00,"O=C(c1cc(Br)c(O)c(Br)c1)N1CCOc2ccc(Cl)cc21 [Example 82, (6-chloro-2,3-dihydrobenzo[1,4]oxazin-4-yl)-(3,5-dibromo-4-hydroxyphenyl)-methanone]"
12,6.00 to 7.00,"O=C(c1cc(Cl)c(O)c(Cl)c1)N1CCNc2ccccc21 [Example 54, (3,5-dichloro-4-hydroxyphenyl)-(3,4-dihydro-2H-quinoxalin-1-yl)-methanone]"
13,6.00 to 7.00,"O=C(c1cc(Cl)c(O)c(Cl)c1)N1CCc2ccccc21 [Example 77, (3,5-dichloro-4-hydroxyphenyl)-(2,3-dihydroindol-1-yl)-methanone]"
14,> 7.00,"O=C(c1cc(Br)c(O)c(Br)c1)N1CCOc2ccc(F)cc21 [Example 79, (3,5-dibromo-4-hydroxyphenyl)-(6-fluoro-2,3-dihydrobenzo[1,4]oxazin-4-yl)-methanone]"
15,> 7.00,"O=C(c1cc(Br)c(O)c(Br)c1)N1CCOc2ccc3ccccc3c21 [Example 80, (3,5-dibromo-4-hydroxyphenyl)-(2,3-dihydronaphtho[2,1-b][1,4]oxazin-1-yl)-methanone]"
16,6.00 to 7.00,"O=C(c1cc(Cl)c(O)c(Cl)c1O)N1CCOc2ccccc21 [Example 50, (3,5-dichloro-2,4-dihydroxyphenyl)-(2,3-dihydrobenzo[1,4]oxazin-4-yl)-methanone]"

# More lines, now with the values behind:
row,SMILES,pIC50
1,"O=C1COc2ccccc2N1C(=O)c1cc(Cl)c(O)c(Cl)c1 [Example 24, 4-(3,5-dichloro-4-hydroxybenzoyl)-4H-benzo[1,4]oxazin-3-one]",5.52 to 6.00
2,"Cc1cccc2c1N(C(=O)c1cc(Cl)c(O)c(Cl)c1)CCO2 [Example 14, (3,5-dichloro-4-hydroxyphenyl)-(5-methyl-2,3-dihydrobenzo[1,4]oxazin-4-yl)-methanone]",> 7.00
3,"O=C(c1cnc(O)c(Cl)c1)N1CCOc2ccccc21 [Example 29, (5-chloro-6-hydroxypyridin-3-yl)-(2,3-dihydrobenzo[1,4]oxazin-4-yl)-methanone]",5.52 to 6.00
4,"O=C(c1ccc(O)c(Br)c1)N1CCOc2ccccc21 [Example 2, (3-bromo-4-hydroxyphenyl)-(2,3-dihydrobenzo[1,4]oxazin-4-yl)-methanone]",> 7.00
5,"O=C(c1cc(I)c(O)c(I)c1)N1CCOc2ccccc21 [Example 5, (2,3-dihydrobenzo[1,4]oxazin-4-yl)-(4-hydroxy-3,5-diiodophenyl)-methanone]",> 7.00
6,"O=C(c1cc(Cl)c(O)c(Cl)c1)N1CCCc2ccccc21 [Example 26, (3,5-dichloro-4-hydroxyphenyl)-(3,4-dihydro-2H-quinolin-1-yl)-methanone]",6.00 to 7.00
7,"O=C(c1cc(Cl)c(O)c(Cl)c1)N1CCCCc2ccccc21 [Example 27, (3,5-dichloro-4-hydroxyphenyl)-(2,3,4,5-tetrahydrobenzo[b]azepin-1-yl)-methanone]",6.00 to 7.00
8,"O=C(c1cc(Cl)c(O)c(Cl)c1)N1CCOc2ccccc21 [Example 3, (3,5-dichloro-4-hydroxyphenyl)-(2,3-dihydrobenzo[1,4]oxazin-4-yl)-methanone]",> 7.00
9,"CC(C)(C)c1ccc2c(c1)N(C(=O)c1cc(Cl)c(O)c(Cl)c1)CCO2 [Example 23, (6-tert-butyl-2,3-dihydrobenzo[1,4]oxazin-4-yl)-(3,5-dichloro-4-hydroxyphenyl)-methanone]",5.52 to 6.00
10,"O=C(c1cc(Cl)c(O)c(Cl)c1)N1CCOc2ccc(O)cc21 [Example 19, (3,5-dichloro-4-hydroxyphenyl)-(6-hydroxy-2,3-dihydrobenzo[1,4]oxazin-4-yl)-methanone]",6.00 to 7.00
11,"O=S(=O)(c1cc(Cl)c(O)c(Cl)c1)N1CCOc2ccccc21 [Example 22, 2,6-dichloro-4-(2,3-dihydrobenzo[1,4]oxazine-4-sulfonyl)phenol]",5.52 to 6.00
12,"O=C(c1ccc(O)c(Cl)c1)N1CCOc2ccccc21 [Example 1, (3-chloro-4-hydroxyphenyl)-(2,3-dihydrobenzo[1,4]oxazin-4-yl)-methanone]",> 7.00
13,"O=C(c1cc(Cl)c(O)c(Cl)c1)N1CCOc2ccc3ccccc3c21 [Example 16, (3,5-dichloro-4-hydroxyphenyl)-(2,3-dihydronaphtho[2,1-b][1,4]oxazin-1-yl)-methanone]",> 7.00
14,"O=C(c1cc(Cl)c(O)c(Cl)c1)N1CCS(=O)(=O)c2ccccc21 [Example 10, (3,5-dichloro-4-hydroxyphenyl)-(1,1-dioxo-2,3-dihydro-1H-1λ^6-benzo[1,4]thiazin-4-yl)-methanone]",6.00 to 7.00
15,"CCN(CC)S(=O)(=O)c1ccc2c(c1)N(C(=O)c1cc(Cl)c(O)c(Cl)c1)CCO2 [Example 21, 4-(3,5-dichloro-4-hydroxybenzoyl)-3,4-dihydro-2H-benzo[1,4]oxazine-6-sulfonic acid diethylamide]",6.00 to 7.00
16,"O=C(c1cc(F)c(O)c(F)c1)N1CCOc2ccccc21 [Example 6, (3,5-difluoro-4-hydroxyphenyl)-(2,3-dihydrobenzo[1,4]oxazin-4-yl)-methanone]",6.00 to 7.00
